Reference: patent publication US7989640B2, “Sulfonylpyrrolidine modulators of androgen receptor function and method” (Bristol-Myers Squibb Company, priority 2004, dated 2011)

Assays:
AR = biological target: T1, AR (Rattus norvegicus, UniProt P15207)
T1 sequence (P15207 1-902): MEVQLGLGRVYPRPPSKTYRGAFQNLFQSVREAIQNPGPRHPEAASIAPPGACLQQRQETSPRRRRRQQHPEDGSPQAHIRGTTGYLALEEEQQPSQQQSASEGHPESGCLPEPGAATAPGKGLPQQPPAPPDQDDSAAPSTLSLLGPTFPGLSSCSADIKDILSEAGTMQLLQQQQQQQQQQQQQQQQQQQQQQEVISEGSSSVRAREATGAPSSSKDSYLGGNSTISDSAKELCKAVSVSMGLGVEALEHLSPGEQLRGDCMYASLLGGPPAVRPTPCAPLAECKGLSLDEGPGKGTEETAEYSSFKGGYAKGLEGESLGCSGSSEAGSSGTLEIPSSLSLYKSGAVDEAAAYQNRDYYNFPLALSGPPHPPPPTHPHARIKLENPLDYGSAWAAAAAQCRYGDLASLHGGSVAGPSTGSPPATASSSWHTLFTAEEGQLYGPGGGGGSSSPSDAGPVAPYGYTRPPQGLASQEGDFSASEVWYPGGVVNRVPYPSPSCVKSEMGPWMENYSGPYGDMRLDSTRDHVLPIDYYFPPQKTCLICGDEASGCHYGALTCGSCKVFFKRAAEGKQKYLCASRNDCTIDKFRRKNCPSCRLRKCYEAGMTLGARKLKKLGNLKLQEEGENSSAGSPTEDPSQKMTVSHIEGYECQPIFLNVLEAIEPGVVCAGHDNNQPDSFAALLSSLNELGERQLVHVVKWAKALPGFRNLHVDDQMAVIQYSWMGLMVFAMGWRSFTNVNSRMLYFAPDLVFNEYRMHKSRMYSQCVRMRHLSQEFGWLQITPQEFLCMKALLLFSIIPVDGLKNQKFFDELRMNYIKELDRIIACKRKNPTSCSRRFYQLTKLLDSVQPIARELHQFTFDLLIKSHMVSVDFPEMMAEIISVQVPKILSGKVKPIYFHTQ
From the text: The activity of compounds of the present invention as AR agonists was investigated in an immature male rat model, a recognized test of anabolic effects in muscle and sustaining effects in sex organs for a given compound, as described in L. G. Hershberger et al., Proc. Soc. […] Biol. Med., 83, 175 (1953); B. L. Beyler et al, “Methods for evaluating anabolic and catabolic agents in laboratory animals”, J. Amer. Med. Women's Ass., 23, 708 (1968); H. Fukuda et al., “Investigations of the levator ani muscle as an anabolic steroid assay”, Nago Dai. Yak. Ken. Nem. 14, 84 (1966) the disclosures of which are herein incorporated by reference.
The basis of this assay lies in the well-defined action of androgenic agents on the maintenance and growth of muscle tissues and sexual accessory organs in animals and man. […] J. Anat. […] Ital. Biol. Sper. […] II. […] Ital. Biol. Sper. 42, 1600 (1966); A. Boris et al., Steroids 15, 61 (1970). As described above, the effects of androgens on maintenance of male sexual accessory organs, such as the prostate and seminal vesicles, is well described. Castration results in rapid involution and atrophy of the prostate and seminal vesicles. This effect can be reversed by exogenous addition of androgens. […]

[1] = biological target: endogenous glucocorticoid receptor (A549 cells) (Homo sapiens, UniProt P04150); conditions: concentration ≦10 μM; 10 ng/mL PMA stimulation; typical value of positive control
Procedure: The AP-1 assay is a cell-based luciferase reporter assay. A549 cells, which contain endogenous glucocorticoid receptor, were stably transfected with an AP-1 DNA binding site attached to the luciferase gene. Cells are then grown in RPMI+10% fetal calf serum (charcoal-treated)+Penicillin/Streptomycin with 0.5 mg/mL geneticin. Cells are plated the day before the assay at approximately 40000 cells/well. On assay day, the media is removed by aspiration and 20 μL assay buffer (RPMI without phenol red+10% FCS (charcoal-treated)+Pen/Strep) is added to each well. At this point either 20 μL assay buffer (control experiments), the compounds of the present invention (“test compounds”) (dissolved in DMSO and added at varying concentrations) or dexamethasome (100 nM in DMSO, positive control) are added to each well. The plates are then pre-incubated for 15 min at 37° C., followed by stimulation of the cells with 10 ng/mL PMA. The plates are then incubated for 7 h at 37° C. after which 40 μL luciferase substrate reagent is added to each well.

wild type AR (MDA 453) = conditions: read-out: Kd for [3H]-DHT; MDA 453 cells, Scatchard analysis
Procedure: For the whole-cell binding assay, human LNCaP cells (T877A mutant AR) or MDA 453 (wild type AR) in 96-well microtiter plates containing RPMI 1640 or DMEM supplemented with 10% charcoal stripped CA-FBS (Cocaleco Biologicals) respectively, were incubated at 37° C. to remove any endogenous ligand that might be complexed with the receptor in the cells.
For the saturation analysis, the difference between the total binding and the non-specific binding, was defined as specific binding. […] See e.g. D. Rodbard, Mathematics and statistics of ligand assays: an illustrated guide: In: J. Langon and J. J. Clapp, eds., Ligand Assay, Masson Publishing U.S.A., Inc., New York, pp. 45-99, (1981), the disclosure of which is herein incorporated by reference.
[formula] After correcting for non-specific binding, IC50 values were determined. […] C2C12 Mouse Myoblast Transactivation Assay

endogenous glucocorticoid receptor (A549 cells), sequence (P04150 whole entry): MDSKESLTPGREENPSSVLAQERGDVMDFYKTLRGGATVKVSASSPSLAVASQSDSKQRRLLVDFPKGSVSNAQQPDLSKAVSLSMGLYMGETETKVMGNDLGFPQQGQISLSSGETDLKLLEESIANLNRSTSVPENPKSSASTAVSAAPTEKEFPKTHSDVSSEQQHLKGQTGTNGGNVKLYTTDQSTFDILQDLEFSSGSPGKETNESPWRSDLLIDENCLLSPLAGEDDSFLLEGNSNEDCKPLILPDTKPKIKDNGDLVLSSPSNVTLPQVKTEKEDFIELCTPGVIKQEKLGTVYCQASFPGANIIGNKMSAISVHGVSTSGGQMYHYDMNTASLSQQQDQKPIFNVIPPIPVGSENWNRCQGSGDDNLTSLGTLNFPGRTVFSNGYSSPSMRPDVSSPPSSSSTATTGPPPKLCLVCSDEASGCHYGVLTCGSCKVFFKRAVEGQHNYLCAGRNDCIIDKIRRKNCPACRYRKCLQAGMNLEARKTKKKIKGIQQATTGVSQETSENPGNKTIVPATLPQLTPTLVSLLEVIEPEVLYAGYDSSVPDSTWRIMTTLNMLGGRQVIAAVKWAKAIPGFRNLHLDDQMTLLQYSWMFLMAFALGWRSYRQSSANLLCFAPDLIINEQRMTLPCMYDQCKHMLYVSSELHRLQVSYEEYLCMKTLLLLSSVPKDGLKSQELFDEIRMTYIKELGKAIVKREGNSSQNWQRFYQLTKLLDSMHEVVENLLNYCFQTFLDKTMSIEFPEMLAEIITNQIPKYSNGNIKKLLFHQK

CCC(=O)O[C@H]1CC[C@H]2[C@@H]3CCC4=CC(=O)CC[C@]4(C)[C@H]3CC[C@]12C [TP, testosterone propionate] was tested, and the “potency relative to free T” value (AR; TP versus free T) was 10-30 fold and the “EC50 (increase in organ weight)” value (AR; immature castrated rats, dosing for 3 days) was roughly 0.03 mg.
For C[C@@H]1C[C@H]2[C@@H]3CCC4=CC(=O)C=C[C@]4(C)[C@@]3(F)[C@@H](O)C[C@]2(C)[C@@]1(O)C(=O)CO [dexamethasone], the “suppression of activity (% inhibition of the reporter system vs buffer control)” value [1] was 65%.
“tritiated dihydrotestosterone [[^3H]-DHT]” showed a Kd (wild type AR (MDA 453)) of 0.7 nM.
